Reference: ChEMBL document CHEMBL1138955, “Novel gamma-secretase inhibitors discovered by library screening of in-house synthetic natural product intermediates” (Bioorg Med Chem Lett, 2006)

Assays:
Gamma-secretase [1] = test: Inhibition of beta amyloid protein 42; assay type: protein-complex assay, Homo sapiens
Gamma-secretase [2] = test: Inhibition of beta amyloid protein 40; assay type: protein-complex assay, Homo sapiens
[3] = target: Gamma-secretase (Homo sapiens) (UniProt Q96BI3+Q9NZ42+Q8WW43+P49768+Q92542+P49810); test: Inhibition of beta amyloid protein 40 at 100 uM; assay type: protein-complex assay

Q: Which results are given for `O=C1C=CC(O)N(C(=O)OCc2ccccc2)C1Cc1ccccc1` (stereo not drawn)?
A: IC50 (Gamma-secretase [1]): 0.7 µM; IC50 (Gamma-secretase [2]): 0.5 µM

Q: Which IC50 (Gamma-secretase [1]) does the source give for `CO[C@@H]1C(=O)C=CC[C@H]1OCc1ccccc1` here?
A: 26 µM

Q: What about the IC50 (Gamma-secretase [2]) of the same molecule?
A: 33.9 µM

Q: How did the IC50 (Gamma-secretase [1]) turn out when `O=C1CCC[C@@H](OCc2ccccc2)[C@@H]1OCc1ccccc1` was run?
A: > 100 µM

Q: And the IC50 (Gamma-secretase [2])?
A: > 100 µM

Q: Which results are given for `COC(=O)N1CCCC(O)C1Cc1ccccc1` (stereo not drawn)?
A: IC50 (Gamma-secretase [1]): > 100 µM; IC50 (Gamma-secretase [2]): > 100 µM

Q: With `CO[C@@H]1CC(O)CC(=O)[C@H]1OCc1ccccc1` (stereo partly drawn) as the molecule, how does the IC50 (Gamma-secretase [1]) read?
A: > 100 µM

Q: What about the IC50 (Gamma-secretase [2]) of the same molecule?
A: > 100 µM

Q: Which results are given for `O=C1C=CCN(S(=O)(=O)c2ccccc2)C1Cc1ccccc1` (stereo not drawn)?
A: IC50 (Gamma-secretase [1]): 12.3 µM; IC50 (Gamma-secretase [2]): 5.9 µM

Q: For `CO[C@@H]1C(=O)CCC[C@H]1O`, which IC50 (Gamma-secretase [1]) is on record?
A: > 100 µM

Q: What about the IC50 (Gamma-secretase [2]) of the same molecule?
A: > 100 µM

Q: With `CO[C@@H]1C(=O)CCC[C@H]1OCc1ccccc1` as the molecule, how does the IC50 (Gamma-secretase [1]) read?
A: > 100 µM

Q: What about the IC50 (Gamma-secretase [2]) of the same molecule?
A: > 100 µM

Q: Which IC50 (Gamma-secretase [1]) does the source give for `O=C1C=CCN(C(=O)OCc2ccccc2)C1Cc1ccccc1` (stereo not drawn) here?
A: 7.4 µM

Q: What about the IC50 (Gamma-secretase [2]) of the same molecule?
A: 4.6 µM

Q: How did the IC50 (Gamma-secretase [1]) turn out when `CO[C@@H]1CC=CC(=O)[C@H]1OCc1ccccc1` was run?
A: 10.2 µM

Q: And the IC50 (Gamma-secretase [2])?
A: 6.9 µM

Q: What does the source list for `CO[C@@H]1CCCC(=O)[C@H]1OCc1ccccc1`?
A: IC50 (Gamma-secretase [1]): 13.9 µM; IC50 (Gamma-secretase [2]): 4.9 µM

Q: Which IC50 (Gamma-secretase [1]) does the source give for `O=C1C=CC[C@@H](OCc2ccccc2)[C@@H]1OCc1ccccc1` here?
A: 1.1 µM

Q: What about the IC50 (Gamma-secretase [2]) of the same molecule?
A: 1.6 µM

Q: What does the source list for `O=C(OCc1ccccc1)N1CCCC(O)C1Cc1ccccc1` (stereo not drawn)?
A: IC50 (Gamma-secretase [1]): > 100 µM; IC50 (Gamma-secretase [2]): > 100 µM

Q: Which results are given for `O=C1C=CCN(C(=O)c2ccccc2)C1Cc1ccccc1` (stereo not drawn)?
A: IC50 (Gamma-secretase [1]): 2.2 µM; IC50 (Gamma-secretase [2]): 1 µM

Q: For `COC(=O)N1CC=CC(=O)C1Cc1ccccc1` (stereo not drawn), which IC50 (Gamma-secretase [1]) is on record?
A: 9.8 µM

Q: And the IC50 (Gamma-secretase [2])?
A: 7.2 µM

Q: For `CO[C@@H]1CCCC(=O)[C@H]1O`, which IC50 (Gamma-secretase [1]) is on record?
A: > 100 µM

Q: And the IC50 (Gamma-secretase [2])?
A: > 100 µM

Q: How did the IC50 (Gamma-secretase [1]) turn out when `COC(=O)N1CCCC(=O)C1Cc1ccccc1` (stereo not drawn) was run?
A: > 100 µM

Q: And the IC50 (Gamma-secretase [2])?
A: > 100 µM

Q: For `O=C1CCCN(C(=O)OCc2ccccc2)C1Cc1ccccc1` (stereo not drawn), which IC50 (Gamma-secretase [1]) is on record?
A: > 100 µM

Q: What about the inhibition [3] of the same molecule?
A: 21%

Q: Which results are given for `CO[C@@H]1C(=O)CC(O)C[C@H]1OCc1ccccc1` (stereo partly drawn)?
A: IC50 (Gamma-secretase [1]): > 100 µM; IC50 (Gamma-secretase [2]): > 100 µM
